These results are taken from ChEMBL document CHEMBL4507291 (2021).

Broadly, the IC50 is the concentration needed to halve the response being measured. Read a low IC50 as higher potency. In general, inhibition refers to the change of the read-out against control, counted positive when it falls.

Experiment [1] has as its target Leucine-rich repeat serine/threonine-protein kinase 2 (Homo sapiens, UniProt Q5S007). The experiment can be described thus: LRRK2 Biochemical Assay.
Experiment [2] has as its target Tyrosine-protein kinase FRK (Homo sapiens) (UniProt P42685). The experiment can be described thus: FRK (PTK5) Kinase screen. Conditions: Compound concentration 1.0 uM; call rule not given here.
Experiment [3] concerns the target Mitogen-activated protein kinase kinase kinase 8 (Homo sapiens) (UniProt P41279). The experiment can be described thus: MAP3K8 (COT) Kinase screen. As to conditions: Compound concentration 1.0 uM.
Experiment [4] concerns the target Endothelin receptor type B (Homo sapiens) (UniProt P24530). Conditions: Compound concentration 10.0 uM.
Experiment [5] has as its target T1, Tyrosine-protein kinase ITK/TSK (Homo sapiens) (UniProt Q08881).
T1 sequence (whole entry): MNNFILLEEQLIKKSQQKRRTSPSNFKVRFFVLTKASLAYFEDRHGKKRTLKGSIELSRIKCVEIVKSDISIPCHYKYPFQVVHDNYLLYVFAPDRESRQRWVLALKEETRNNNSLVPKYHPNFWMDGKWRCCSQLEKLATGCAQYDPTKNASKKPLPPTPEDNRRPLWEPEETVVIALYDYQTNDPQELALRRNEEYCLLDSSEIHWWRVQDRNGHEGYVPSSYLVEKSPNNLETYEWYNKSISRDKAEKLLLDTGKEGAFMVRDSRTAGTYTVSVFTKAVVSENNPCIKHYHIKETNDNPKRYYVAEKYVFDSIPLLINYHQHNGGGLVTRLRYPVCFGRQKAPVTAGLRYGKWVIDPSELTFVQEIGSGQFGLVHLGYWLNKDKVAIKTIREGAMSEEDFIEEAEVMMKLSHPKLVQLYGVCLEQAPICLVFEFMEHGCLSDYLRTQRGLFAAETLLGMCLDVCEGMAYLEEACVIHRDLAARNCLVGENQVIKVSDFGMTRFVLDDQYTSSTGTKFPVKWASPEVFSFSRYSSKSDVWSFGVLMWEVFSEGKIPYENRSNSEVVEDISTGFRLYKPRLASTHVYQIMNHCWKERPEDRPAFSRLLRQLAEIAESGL
As to the kind of experiment: ITK Kinase screen. As to conditions: Compound concentration 1.0 uM.

The target of experiment [6] is Glutamate NMDA receptor (Rattus norvegicus) (UniProt P35439+Q00959+Q00960+Q00961+Q62645+Q8VHN2+Q9R1M7). Conditions: Compound concentration 10.0 uM.
Experiment [7] deals with Platelet-derived growth factor receptor alpha (Homo sapiens), P16234 [V561D]. The experiment can be described thus: PDGFRA V561D Kinase screen. As to conditions: Compound concentration 1.0 uM.
For experiment [8], the system named is Epidermal growth factor receptor (Homo sapiens), P00533 [L861Q]. As to the kind of experiment: EGFR (ErbB1) L861Q Kinase screen. As to conditions: Compound concentration 1.0 uM.
The target of experiment [9] is T2, Ephrin type-A receptor 1 (Homo sapiens) (UniProt P21709).
T2 sequence (whole entry): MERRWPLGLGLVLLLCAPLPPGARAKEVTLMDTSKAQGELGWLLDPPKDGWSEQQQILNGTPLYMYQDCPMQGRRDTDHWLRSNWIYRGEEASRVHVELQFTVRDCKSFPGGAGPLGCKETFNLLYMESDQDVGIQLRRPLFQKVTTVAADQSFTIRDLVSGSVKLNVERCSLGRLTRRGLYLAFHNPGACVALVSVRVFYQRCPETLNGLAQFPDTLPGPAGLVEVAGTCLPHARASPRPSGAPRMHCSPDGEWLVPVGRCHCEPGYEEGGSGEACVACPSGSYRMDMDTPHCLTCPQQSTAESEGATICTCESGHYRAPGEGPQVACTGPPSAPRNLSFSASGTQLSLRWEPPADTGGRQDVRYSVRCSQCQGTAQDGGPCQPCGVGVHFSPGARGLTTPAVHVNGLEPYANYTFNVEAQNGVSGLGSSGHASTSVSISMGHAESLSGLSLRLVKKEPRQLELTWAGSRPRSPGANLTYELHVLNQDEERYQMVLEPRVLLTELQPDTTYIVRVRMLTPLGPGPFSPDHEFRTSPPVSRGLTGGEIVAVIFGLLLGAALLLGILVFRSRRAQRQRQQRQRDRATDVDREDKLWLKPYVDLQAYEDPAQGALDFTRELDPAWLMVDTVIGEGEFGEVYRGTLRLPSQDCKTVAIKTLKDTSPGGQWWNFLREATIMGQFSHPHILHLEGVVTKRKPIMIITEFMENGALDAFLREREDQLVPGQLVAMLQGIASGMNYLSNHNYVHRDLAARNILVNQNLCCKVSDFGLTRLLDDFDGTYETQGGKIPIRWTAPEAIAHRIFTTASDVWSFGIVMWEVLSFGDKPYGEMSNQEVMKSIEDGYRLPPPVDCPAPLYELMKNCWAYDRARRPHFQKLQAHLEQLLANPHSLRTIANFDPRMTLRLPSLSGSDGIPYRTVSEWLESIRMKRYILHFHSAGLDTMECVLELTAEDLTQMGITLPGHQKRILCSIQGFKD
As to the kind of experiment: EPHA1 Kinase screen. Conditions: Compound concentration 1.0 uM.

Experiment [10] has as its target G protein-coupled receptor kinase 4 (Homo sapiens) (UniProt P32298). As to the kind of experiment: GRK4 Kinase screen. As to conditions: Compound concentration 1.0 uM.
The target in experiment [11] is Substance-P receptor (Homo sapiens) (UniProt P25103). The experiment can be described thus: Inhibition of Tachykinin NK1 at 10 µM in the Eurofins-Panlabs radioligand binding assay (Eurofins_assay_255520). More on the design: ligand concentration 0.8 nM. Conditions: Compound concentration 10.0 uM.
For experiment [12], the target named is Cannabinoid receptor 2 (Homo sapiens) (UniProt P34972).
Experiment [13] deals with C-X-C chemokine receptor type 2 (Homo sapiens) (UniProt P25025). As to the kind of experiment: Inhibition of Chemokine CXCR2 (IL-8RB) at 10 µM in the Eurofins-Panlabs radioligand binding assay (Eurofins_assay_244500). As to conditions: Compound concentration 10.0 uM.
For experiment [14], the target named is Retinoic acid receptor RXR-alpha (Homo sapiens) (UniProt P19793). As to the kind of experiment: Retinoid X Receptor RXRalpha Eurofins-Panlabs radioligand binding assay. As to conditions: Compound concentration 10.0 uM.
Experiment [15] addresses Protein kinase C beta type (Homo sapiens) (UniProt P05771). As to the kind of experiment: PRKCB1 (PKC beta I) Kinase screen. As to conditions: Compound concentration 1.0 uM.
In experiment [16] the target is LIM domain kinase 1 (Homo sapiens) (UniProt P53667). The experiment can be described thus: LIMK1 Kinase screen. Conditions: Compound concentration 1.0 uM.
In experiment [17] the target is Caspase-9 (Homo sapiens) (UniProt P55211). As to the kind of experiment: Peptidase, CASP9 (Caspase 9) Eurofins-Panlabs enzyme assay. More on the design: substrate with concentration. As to conditions: Compound concentration 10.0 uM.
For experiment [18], the target named is C-X-C chemokine receptor type 4 (Homo sapiens) (UniProt P61073). The experiment can be described thus: Chemokine CXCR4 Eurofins-Panlabs radioligand binding assay. More on the design: ligand concentration 0.03 nM. Conditions: Compound concentration 10.0 uM.
C-X-C chemokine receptor type 4 (Homo sapiens), sequence (P61073 whole entry): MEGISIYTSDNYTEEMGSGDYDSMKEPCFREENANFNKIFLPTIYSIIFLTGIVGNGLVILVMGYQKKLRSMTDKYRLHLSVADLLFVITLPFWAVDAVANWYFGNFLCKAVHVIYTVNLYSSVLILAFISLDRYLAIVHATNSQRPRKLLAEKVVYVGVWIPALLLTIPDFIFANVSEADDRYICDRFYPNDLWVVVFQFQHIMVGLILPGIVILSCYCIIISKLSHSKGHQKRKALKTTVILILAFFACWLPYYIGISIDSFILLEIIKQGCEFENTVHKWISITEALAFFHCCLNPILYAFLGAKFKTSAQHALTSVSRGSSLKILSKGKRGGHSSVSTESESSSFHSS

Cannabinoid receptor 2 (Homo sapiens), sequence (P34972 whole entry): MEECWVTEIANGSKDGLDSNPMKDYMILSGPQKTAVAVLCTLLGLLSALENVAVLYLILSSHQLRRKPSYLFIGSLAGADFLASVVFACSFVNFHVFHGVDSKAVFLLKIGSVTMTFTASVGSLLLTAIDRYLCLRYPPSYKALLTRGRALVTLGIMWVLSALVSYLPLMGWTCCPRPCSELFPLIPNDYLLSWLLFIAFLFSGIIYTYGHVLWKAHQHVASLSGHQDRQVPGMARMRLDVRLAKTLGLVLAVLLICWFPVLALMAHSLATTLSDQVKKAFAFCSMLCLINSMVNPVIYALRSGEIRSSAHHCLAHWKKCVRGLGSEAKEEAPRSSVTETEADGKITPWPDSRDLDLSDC
Protein kinase C beta type (Homo sapiens), sequence (P05771 2-671 limits assumed): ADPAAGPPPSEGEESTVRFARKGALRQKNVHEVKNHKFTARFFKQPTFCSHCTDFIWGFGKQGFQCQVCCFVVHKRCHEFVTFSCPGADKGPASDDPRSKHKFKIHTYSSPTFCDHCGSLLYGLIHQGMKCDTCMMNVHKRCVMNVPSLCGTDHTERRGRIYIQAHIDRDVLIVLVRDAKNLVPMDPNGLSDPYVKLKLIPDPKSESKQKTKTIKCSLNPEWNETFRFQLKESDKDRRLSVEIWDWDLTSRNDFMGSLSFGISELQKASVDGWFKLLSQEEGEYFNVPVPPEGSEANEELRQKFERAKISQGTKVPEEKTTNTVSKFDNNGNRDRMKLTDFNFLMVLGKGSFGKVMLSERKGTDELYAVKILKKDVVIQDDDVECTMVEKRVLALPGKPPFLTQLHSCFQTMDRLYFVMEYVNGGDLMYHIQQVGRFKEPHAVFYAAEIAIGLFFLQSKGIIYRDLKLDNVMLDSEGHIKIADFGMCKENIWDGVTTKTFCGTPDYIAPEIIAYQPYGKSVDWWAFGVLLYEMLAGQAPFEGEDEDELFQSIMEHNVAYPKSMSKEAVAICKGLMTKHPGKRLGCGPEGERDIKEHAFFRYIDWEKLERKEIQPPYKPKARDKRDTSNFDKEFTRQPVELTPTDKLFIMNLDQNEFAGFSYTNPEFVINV
C-X-C chemokine receptor type 2 (Homo sapiens), sequence (P25025 whole entry): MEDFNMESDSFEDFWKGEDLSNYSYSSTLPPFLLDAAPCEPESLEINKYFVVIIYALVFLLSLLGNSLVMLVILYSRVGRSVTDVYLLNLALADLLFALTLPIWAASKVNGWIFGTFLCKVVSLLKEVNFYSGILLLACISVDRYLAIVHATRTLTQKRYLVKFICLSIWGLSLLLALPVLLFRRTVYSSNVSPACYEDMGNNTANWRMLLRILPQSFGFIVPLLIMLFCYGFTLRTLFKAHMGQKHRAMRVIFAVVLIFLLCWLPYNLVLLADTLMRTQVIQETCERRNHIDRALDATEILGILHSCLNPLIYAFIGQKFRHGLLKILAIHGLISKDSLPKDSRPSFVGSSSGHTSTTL
Leucine-rich repeat serine/threonine-protein kinase 2, sequence (Q5S007 whole entry): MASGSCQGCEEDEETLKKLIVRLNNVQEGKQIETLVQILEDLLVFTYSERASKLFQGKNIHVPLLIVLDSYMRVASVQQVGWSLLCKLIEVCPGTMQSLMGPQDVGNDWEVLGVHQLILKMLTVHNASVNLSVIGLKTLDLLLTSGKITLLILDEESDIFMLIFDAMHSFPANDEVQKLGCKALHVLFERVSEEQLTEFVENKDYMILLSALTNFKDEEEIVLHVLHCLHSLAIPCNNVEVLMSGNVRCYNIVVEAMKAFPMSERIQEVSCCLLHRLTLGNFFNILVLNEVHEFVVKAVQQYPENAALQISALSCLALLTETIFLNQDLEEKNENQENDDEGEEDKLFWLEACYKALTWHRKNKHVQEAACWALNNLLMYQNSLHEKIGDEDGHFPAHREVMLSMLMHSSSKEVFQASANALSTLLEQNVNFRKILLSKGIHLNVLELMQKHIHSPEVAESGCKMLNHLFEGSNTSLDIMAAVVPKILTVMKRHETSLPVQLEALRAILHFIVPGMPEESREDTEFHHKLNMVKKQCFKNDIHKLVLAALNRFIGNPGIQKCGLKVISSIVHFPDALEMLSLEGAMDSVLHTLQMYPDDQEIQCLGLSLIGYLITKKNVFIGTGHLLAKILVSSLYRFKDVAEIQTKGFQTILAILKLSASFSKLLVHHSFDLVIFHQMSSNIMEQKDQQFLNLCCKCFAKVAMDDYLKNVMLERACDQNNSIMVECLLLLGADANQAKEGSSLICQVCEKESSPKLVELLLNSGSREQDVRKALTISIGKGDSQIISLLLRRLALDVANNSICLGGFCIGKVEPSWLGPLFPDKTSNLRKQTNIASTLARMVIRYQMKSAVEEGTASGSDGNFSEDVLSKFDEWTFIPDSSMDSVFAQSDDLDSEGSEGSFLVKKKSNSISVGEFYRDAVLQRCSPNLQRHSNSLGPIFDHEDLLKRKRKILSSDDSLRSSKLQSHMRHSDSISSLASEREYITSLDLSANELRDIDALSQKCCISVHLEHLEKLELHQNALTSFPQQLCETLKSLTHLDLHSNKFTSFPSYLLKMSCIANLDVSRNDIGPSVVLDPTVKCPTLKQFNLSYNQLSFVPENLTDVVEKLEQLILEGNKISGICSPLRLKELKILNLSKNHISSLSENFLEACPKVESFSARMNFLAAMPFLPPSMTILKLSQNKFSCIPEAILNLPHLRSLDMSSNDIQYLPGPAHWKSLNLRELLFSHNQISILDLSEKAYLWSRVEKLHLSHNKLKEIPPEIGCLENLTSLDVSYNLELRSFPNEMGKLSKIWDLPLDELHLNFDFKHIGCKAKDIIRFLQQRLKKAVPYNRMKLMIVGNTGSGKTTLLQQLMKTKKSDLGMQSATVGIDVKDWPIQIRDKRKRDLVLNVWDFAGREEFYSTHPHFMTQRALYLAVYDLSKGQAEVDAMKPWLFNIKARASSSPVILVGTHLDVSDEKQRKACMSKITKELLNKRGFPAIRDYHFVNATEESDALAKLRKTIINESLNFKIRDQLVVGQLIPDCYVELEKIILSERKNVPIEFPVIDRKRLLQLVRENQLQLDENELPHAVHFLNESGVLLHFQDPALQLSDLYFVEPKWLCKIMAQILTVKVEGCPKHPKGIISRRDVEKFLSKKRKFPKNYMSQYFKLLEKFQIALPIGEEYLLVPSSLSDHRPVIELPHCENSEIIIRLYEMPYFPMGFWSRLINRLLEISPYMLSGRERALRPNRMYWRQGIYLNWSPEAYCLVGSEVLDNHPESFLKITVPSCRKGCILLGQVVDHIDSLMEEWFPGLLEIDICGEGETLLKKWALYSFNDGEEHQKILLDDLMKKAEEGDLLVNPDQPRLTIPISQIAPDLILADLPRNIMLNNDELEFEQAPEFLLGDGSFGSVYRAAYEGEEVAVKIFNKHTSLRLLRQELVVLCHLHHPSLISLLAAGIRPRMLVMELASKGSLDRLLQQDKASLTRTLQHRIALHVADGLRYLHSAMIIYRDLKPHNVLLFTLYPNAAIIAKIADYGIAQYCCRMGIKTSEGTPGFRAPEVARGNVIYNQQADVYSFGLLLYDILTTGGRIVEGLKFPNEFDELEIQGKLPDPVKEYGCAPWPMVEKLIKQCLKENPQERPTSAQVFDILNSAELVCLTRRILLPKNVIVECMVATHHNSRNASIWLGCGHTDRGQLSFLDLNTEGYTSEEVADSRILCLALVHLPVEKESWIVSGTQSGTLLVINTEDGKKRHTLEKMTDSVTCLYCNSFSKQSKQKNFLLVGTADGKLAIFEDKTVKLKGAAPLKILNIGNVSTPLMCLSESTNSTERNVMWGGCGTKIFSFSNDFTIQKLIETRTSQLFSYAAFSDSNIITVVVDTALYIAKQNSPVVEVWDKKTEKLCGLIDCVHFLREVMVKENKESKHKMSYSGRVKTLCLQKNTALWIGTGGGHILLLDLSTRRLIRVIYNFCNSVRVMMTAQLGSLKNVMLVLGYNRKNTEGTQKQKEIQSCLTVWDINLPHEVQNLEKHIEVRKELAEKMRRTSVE
Retinoic acid receptor RXR-alpha (Homo sapiens), sequence (P19793 whole entry): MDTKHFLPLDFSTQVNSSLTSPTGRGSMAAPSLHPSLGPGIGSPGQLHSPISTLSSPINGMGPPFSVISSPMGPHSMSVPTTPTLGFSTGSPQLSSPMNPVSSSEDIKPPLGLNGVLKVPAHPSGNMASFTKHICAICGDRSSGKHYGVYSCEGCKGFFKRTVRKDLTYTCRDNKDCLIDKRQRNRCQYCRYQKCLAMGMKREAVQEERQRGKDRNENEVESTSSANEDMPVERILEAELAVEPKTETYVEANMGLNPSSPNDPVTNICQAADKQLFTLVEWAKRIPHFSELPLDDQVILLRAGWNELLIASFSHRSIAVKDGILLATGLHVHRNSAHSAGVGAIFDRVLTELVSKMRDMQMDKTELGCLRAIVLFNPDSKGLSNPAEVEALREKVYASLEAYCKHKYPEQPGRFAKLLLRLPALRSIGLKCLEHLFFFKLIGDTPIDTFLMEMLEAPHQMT

On to `C[C@@H]1CN(c2cc(-c3nn(C)c4ccc(OC5(C)CC5)cc34)ncn2)C[C@H](C)O1` [MLi-2-NC], for which the IC50 in experiment [1] is on record as 6.48 µM (not active).

Regarding `C[C@@H]1CN(c2cc(-c3n[nH]c4ccc(OC5(C)CC5)cc34)ncn2)C[C@H](C)O1` [MLi-2], the inhibition in [2] is 7.13%; in [3], 16.3%; in experiment [4] it was -1%; in experiment [5] it was 2.04%; in experiment [6], 4%; in experiment [7], 8.06%. The inhibition was 9.16% in experiment [8]; 7.77% in [9]; 6.02% in experiment [10]; 22% in [11]; 2% in experiment [12] (Compound concentration 3.0 uM); 2% in [12] (Compound concentration 10.0 uM). In addition, the inhibition in [13] was 1%; in experiment [14], 4%; in experiment [15] it was -7.69%; in experiment [16], 11%; in experiment [17], 5%; in experiment [18] it was 3%.
